{"source": "PubChem BioAssay AID1963854", "about": "(Molecular Pharmacology Branch, DTP, NCI, 2024)", "system": "186277-243-T-J2-PDC complex spheroid viability", "test": "Anticancer human tumor 186277-243-T-J2-PDC patient-derived colon adenocarcinoma cell line growth inhibition [POLQ]", "details": "for viability, T/C: stronger effect = lower value", "procedure": "Multicellular complex tumor spheroid response to Polymerase (POL) inhibitors (novobiocin, ART-558, RP6685) in combination with a variety of drugs and investigational agents in selected tumor cell lines\nThe POL inhibitors (novobiocin, ART-558, and RP6685) were evaluated both individually and in combination with standard of care and investigational anticancer small molecules within a complex spheroid model of solid tumors. . Complex spheroids include a stromal component modeled by human endothelial cells (HUVEC) and fibroblasts modeled by human mesenchymal stem cells (MSCs). The concentration ranges selected for each drug and investigational agent were based upon clinically achievable concentrations if the clinical Cmax of the agent was known.\nCompounds. The drugs and investigational agents: novobiocin (NSC847541), ART-558 (NSC835418), RP-6685 (NSC848927), peposertib (NSC802822), ceralasertib (NSC780249), elimusertib (NSC800525), camonsertib (NSC841442), AZD-1390 (NSC803789), olaparib (NSC753686), talazoparib (NSC767125), rucaparib (NSC756644), sotorasib (NSC818433), MRTX-1133 (NSC836407), SN-38 (NSC673596), topotecan (NSC609699), epotoside (NSC141540), doxorubicin (NSC123127), gemcitabine (NSC613327), 5-fluorouracil (NSC19893), paclitaxel (NSC125973), vemurafenib (NSC761431), MSA-2 (NSC828583), SN-011 (NSC837082), adavosertib (NSC754352), prexasertib (NSC758257), carboplatin (NSC241240) and oxaliplatin (NSC266046), were obtained from the National Cancer Institute (NCI) Developmental Therapeutics Program Chemical Repository (21). The FDA-approved anticancer drug set is available from the Developmental Therapeutics Program at https://dtp.cancer.gov/organization/dscb/obtaining/. […] The stock solutions were prepared in dimethyl sulfoxide (DMSO, Sigma-Aldrich, St. Louis, MO, cat. D2650), except for the platinum compounds which were prepared in saline (Quality Biological, Gaithersburg, MD, cat. 114-055-101), at 800-fold the tested concentration and stored at -70 degrees C prior to their use. All drugs and investigational agents were tested over a range starting from a high concentration at or near the clinical Cmax and decreasing in half-log increments. If the clinical Cmax for an agent had not been determined, the highest concentration tested was 10 microM, except for SN-38, which was tested at a high concentration of 1 microM.\nCell Culture. All cells were maintained in an incubator at 37 degrees C and 5% CO2 with 95% humidity. The PDC lines were cultured according to standard operating procedures established by the NCI PDMR (https://pdmr.cancer.gov). Table 3 of the manuscript, lists the cell lines along with the number of the three cell types plated to form the mct-spheroids and media for tumor cell growth. After thawing, all PDC lines, except 997537-175-T-J1-PDC and 415267-285-R-J2-PDC, were cultured in Matrigel-coated flasks prepared with a working solution of 1X Ham's F-12 nutrient mix, without supplementation (Thermo Fisher Scientific, cat. 11765054), 100 U/mL penicillin-streptomycin (Thermo Fisher Scientific, cat. 15140122), and 2.5% Matrigel (Corning Inc., Corning, NY, cat. 354248) for the first three passages. The two PDC lines 997537-175-T-J1-PDC and 415267-285-R-J2-PDC were cultured on uncoated flasks. The 857933-349-R-J2-PDC line was cultured in 6C/Colon 1B media containing advanced DMEM/F-12 (Thermo Fisher Scientific, cat. 12634028), 10 mM HEPES (Thermo Fisher Scientific, cat. 15630080), 1X GlutaMAX supplement (Thermo Fisher Scientific, cat. 35050061), 0.1 mg/mL primocin (InvivoGen, San Diego, CA, cat. ant-pm-2), 10% defined fetal bovine serum, heat inactivated (HyClone Laboratories Inc., Logan, UT, cat. SH30070.03HI), 50% L-WRN conditioned media (ATCC, cat. CRL-3276), 1.25 mM N-Acetyl-L-cysteine (Sigma-Aldrich, cat. A9165), 10 mM nicotinamide (Sigma-Aldrich, cat. N0636), 1X B-27 supplement (Thermo Fisher Scientific, cat. 17504044), 1X N-2 supplement (Thermo Fisher Scientific, cat. […]", "note": "Values joined by “and” are separate entries in the source; they are usually repeats but may differ in a detail not shown here. Equal entries are not always repeated.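 Also: spheroids exposed to compounds for seven days.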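 For viability, T/C in this document: 100% = DMSO vehicle control viability.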", "data": [{"smiles": "COc1cccc(OCCCN)c1-c1cc(Nc2cnc(C#N)cn2)n[nH]1", "values": [{"measurement": "viability, T/C", "setting": "compound 0.01 µM", "result": "5.26% and 13.4% and 12.2%"}, {"measurement": "viability, T/C", "setting": "compound 0.0316 µM", "result": "4.75% and 10.6% and 9.65%"}, {"measurement": "viability, T/C", "setting": "compound 0.1 µM", "result": "4.55% and 9.76% and 10.4%"}, {"measurement": "viability, T/C", "setting": "compound 0.316 µM", "result": "4.05% and 9.54% and 9.26%"}, {"measurement": "viability, T/C", "setting": "compound 1 µM", "result": "5.58% and 9.9% and 9.33%"}, {"measurement": "IC50", "setting": "curve of compound", "result": "< 3.16", "unit": "nM"}]}, {"smiles": "COc1cc(C2c3cc4c(cc3C(OC3OC5COC(C)OC5C(O)C3O)C3COC(=O)C23)OCO4)cc(OC)c1O", "note": "(stereo unspecified)", "values": [{"measurement": "viability, T/C", "setting": "compound 0.0316 µM", "result": "99.9% and 94.4% and 99.1%"}, {"measurement": "viability, T/C", "setting": "compound 0.1 µM", "result": "111% and 100% and 118%"}, {"measurement": "viability, T/C", "setting": "compound 0.316 µM", "result": "82.8% and 130% and 71.7%"}, {"measurement": "viability, T/C", "setting": "compound 1 µM", "result": "48.1% and 89.2% and 45.2%"}, {"measurement": "viability, T/C", "setting": "compound 3.16 µM", "result": "30.1% and 59.8% and 27.6%"}, {"measurement": "viability, T/C", "setting": "compound 10 µM", "result": "14.3% and 30.9% and 11.9%"}, {"measurement": "IC50", "setting": "curve of compound", "result": "989 nM and 4470 nM and 810 nM"}]}, {"smiles": "O=c1[nH]cc(F)c(=O)[nH]1", "values": [{"measurement": "viability, T/C", "setting": "compound 0.0316 µM", "result": "88.9% and 104% and 92.7%"}, {"measurement": "viability, T/C", "setting": "compound 0.1 µM", "result": "89.7% and 103% and 117%"}, {"measurement": "viability, T/C", "setting": "compound 0.316 µM", "result": "97.9% and 120% and 108%"}, {"measurement": "viability, T/C", "setting": "compound 1 µM", "result": "98% and 95% and 112%"}, {"measurement": "viability, T/C", "setting": "compound 3.16 µM", "result": "77% and 103% and 69.6%"}, {"measurement": "viability, T/C", "setting": "compound 10 µM", "result": "48.4% and 63.8% and 49.9%"}, {"measurement": "IC50", "setting": "curve of compound", "result": "9370 nM and > 10000 nM"}]}, {"smiles": "C=CCn1c(=O)c2cnc(Nc3ccc(N4CCN(C)CC4)cc3)nc2n1-c1cccc(C(C)(C)O)n1", "values": [{"measurement": "viability, T/C", "setting": "compound 0.00316 µM", "result": "95.7% and 86.8% and 99.2%"}, {"measurement": "viability, T/C", "setting": "compound 0.01 µM", "result": "96% and 97.5% and 95.8%"}, {"measurement": "viability, T/C", "setting": "compound 0.0316 µM", "result": "97.8% and 104% and 94.2%"}, {"measurement": "viability, T/C", "setting": "compound 0.1 µM", "result": "93.9% and 91.6% and 113%"}, {"measurement": "viability, T/C", "setting": "compound 0.316 µM", "result": "13.8% and 27.6% and 28.5%"}, {"measurement": "viability, T/C", "setting": "compound 1 µM", "result": "7.74% and 14.5% and 12.9%"}, {"measurement": "IC50", "setting": "curve of compound", "result": "188 nM and 211 nM and 224 nM"}]}, {"smiles": "COc1cc2cc(C(=O)CCC(=O)O)sc2cc1OC", "values": [{"measurement": "viability, T/C", "setting": "compound 0.0316 µM", "result": "92.9% and 94% and 94.8%"}, {"measurement": "viability, T/C", "setting": "compound 0.1 µM", "result": "92.5% and 101% and 99.4%"}, {"measurement": "viability, T/C", "setting": "compound 0.316 µM", "result": "100% and 88% and 107%"}, {"measurement": "viability, T/C", "setting": "compound 1 µM", "result": "111% and 86% and 87.3%"}, {"measurement": "viability, T/C", "setting": "compound 3.16 µM", "result": "94.3% and 96.3% and 101%"}, {"measurement": "viability, T/C", "setting": "compound 10 µM", "result": "94.8% and 95.2% and 101%"}, {"measurement": "IC50", "setting": "curve of compound", "result": "> 10000", "unit": "nM"}]}, {"smiles": "CCc1c2c(nc3ccc(O)cc13)-c1cc3c(c(=O)n1C2)COC(=O)[C@]3(O)CC", "values": [{"measurement": "viability, T/C", "setting": "compound 0.00316 µM", "result": "71.2% and 120% and 58.7%"}, {"measurement": "viability, T/C", "setting": "compound 0.01 µM", "result": "48.6% and 82.9% and 43.5%"}, {"measurement": "viability, T/C", "setting": "compound 0.0316 µM", "result": "25.4% and 47% and 22.2%"}, {"measurement": "viability, T/C", "setting": "compound 0.1 µM", "result": "12.7% and 25.5% and 10.8%"}, {"measurement": "viability, T/C", "setting": "compound 0.316 µM", "result": "9.65% and 21.7% and 8.26%"}, {"measurement": "viability, T/C", "setting": "compound 1 µM", "result": "7.75% and 21.3% and 6.71%"}, {"measurement": "IC50", "setting": "curve of compound", "result": "9.35 nM and 27.7 nM and 6.11 nM"}]}, {"smiles": "Cc1cccc(N(C)C(=O)C2C(O)CCN2c2nc(C)cc(C(F)(F)F)c2C#N)c1", "note": "(stereo unspecified)", "values": [{"measurement": "viability, T/C", "setting": "compound 0.0316 µM", "result": "107% [middle of 13 runs]"}, {"measurement": "viability, T/C", "setting": "compound 0.1 µM", "result": "102% [middle of 13 runs]"}, {"measurement": "viability, T/C", "setting": "compound 0.316 µM", "result": "99.1% [middle of 13 runs]"}, {"measurement": "viability, T/C", "setting": "compound 1 µM", "result": "97.2% [middle of 13 runs]"}, {"measurement": "viability, T/C", "setting": "compound 3.16 µM", "result": "95.9% [middle of 13 runs]"}, {"measurement": "viability, T/C", "setting": "compound 10 µM", "result": "92.7% [middle of 13 runs]"}, {"measurement": "IC50", "setting": "compound alone, run of 10/31/2023", "result": "> 10000", "unit": "nM"}, {"measurement": "IC50", "setting": "compound alone, run of 11/06/2023", "result": "> 10000", "unit": "nM"}]}, {"smiles": "CC(C)n1c(=O)n(C)c2cnc3cc(F)c(-c4ccc(OCCCN5CCCCC5)nc4)cc3c21", "values": [{"measurement": "viability, T/C", "setting": "compound 0.0316 µM", "result": "86.3% and 111% and 107%"}, {"measurement": "viability, T/C", "setting": "compound 0.1 µM", "result": "104% and 91.8% and 97.7%"}, {"measurement": "viability, T/C", "setting": "compound 0.316 µM", "result": "89.3% and 95.6% and 91.6%"}, {"measurement": "viability, T/C", "setting": "compound 1 µM", "result": "100% and 98.3% and 88.6%"}, {"measurement": "viability, T/C", "setting": "compound 3.16 µM", "result": "100% and 98.2% and 98.4%"}, {"measurement": "viability, T/C", "setting": "compound 10 µM", "result": "86% and 92.2% and 96.9%"}, {"measurement": "IC50", "setting": "curve of compound", "result": "> 10000", "unit": "nM"}]}]}
